In brackets after ≈: the same amount, converted by molar mass.
Columns and labels:
C. auris biofilm = experiment: Crystal violet biofilm formation assay, C. auris; type: cell-based, Candida auris; details: for effect on formation of C. auris biofilms: CV assay, 24 h treatment
Protocol: The fungal pathogens C. auris [[…]] or C. albicans [DSM 11225] were cultured from stock in 25 mL YPD medium in a 250 mL flask (30 °C, 100 rpm, 18 h). The turbidity of the broth was measured at 280 nm using a spectrophotometer (Nanodrop 2000c, Thermo Fisher Scientific, Waltham, MA, USA) and diluted to match the turbidity of a 0.5 McFarland standard in RPMI 1640 medium (Gibco, New York, NY, USA; Thermo Fisher Scientific), supplemented with […] 3-(N-morpholino)propanesulfonic acid (MOPS, Carl Roth, Karlsruhe, Germany) for C. auris, or 0.05 McFarland standard in RPMI 1640 medium in the case of C. albicans. Subsequently, 150 μL of the fungal dispersion were added into each well of a 96-well microtiter plate (Falcon no. 351172, Thermo Fisher Scientific) and further incubated (37 °C, 150 rpm, 2 h [C. auris] or 90 min [C. albicans]). The supernatant was discarded and the plate was rinsed one time by using a PBS buffer. Afterwards, azaphilones (Rub A, C, W, Z, and Rut A and B) were serially diluted in 150 μL in fresh medium to concentrations of 250–2 μg/mL (Rub C for C. auris: 250–0.02 μg/mL). Methanol (2.5%) was used as a solvent control and both, nystatin (NYS; Thermo Fisher Scientific) and farnesol (FA; Sigma Aldrich, St. Louis, MO, USA) as positive controls (250–2 μg/mL) for C. auris and C. albicans, respectively. Plates were further incubated (37 °C, 150 rpm, 24 h). The supernatant was discarded and biofilms were washed with PBS, stained by adding 150 μL of the crystal violet (CV; Sigma Aldrich) solution (0.1%), and incubated (room temperature, 25 min). Afterwards, the plates were washed twice with PBS buffer. A total of 150 μL ethanol (95%) were applied to dissolve the biofilm-bound CV. The absorbance was measured by a plate reader (Synergy 2, BioTek, Santa Clara, CA, USA) at 570 nm for C. auris or 610 nm for C. albicans. Error bars indicate SD with duplicates in two biological repeats.

C. albicans [DSM 11225] = experiment: MIC assay, C. albicans DSM 11225; type: cell-based, Candida albicans; details: tested 250–2 µg/mL
Protocol: (§1) The MICs of rubiginosin- and rutilin-type azaphilones—in detail, Rub A, C, W, Z, and Rut A and B—were determined as described previously using the selected pathogens C. albicans [DSM 11225, DSM 1665], C. albicans CAI-4 HWP1-lacZ [ZK3379] and C. auris [DSM 21092] (see Table S1 for detailed information). All compounds were tested within the concentration range of 250 µg/mL–2 µg/mL for C. albicans [DSM 11225, DSM 1665], C. albicans CAI-4 HWP1-lacZ [ZK3379], C. auris [DSM 21092]. […]
(§2) All compounds were fully dissolved in
(§3) The assay was conducted as a minimum inhibitory concentration (MIC) assay in 96-well round-bottom microtiter plates using the parameters summarized in table S1 and as already described in [2]. Stocks of the test organisms were generated by growing the organisms overnight in 250 mL (Candida albicans [DSM 11225], [DSM 1665], CAI-4 HWP1-lacZ, Candida auris [DSM 21092]) or 50 mL shaking (the rest organisms) flasks filled with 25 mL of the growth medium at 140 rpm (for media and temperatures see table S1). After incubation overnight, the OD of the suspension was measured and adjusted by diluting with the respective growth medium. OD600 nm was adjusted to 0.01 for bacteria and OD600 nm to 0.1 for fungi and 150 μL of the adjusted suspensions were added to all wells of a 96-well microtiter plate (one test organism per plate). Subsequently, additional 130 μL (1 mg/mL tested compounds) or 142.5 μL (10 mg/mL tested compounds ) of suspensions, plus 20 μL (1 mg/mL tested compounds) respectively 7.5 μL (10 mg/mL tested compounds ) of the test compounds were added to first row. C ontrols (one compound/column) were added as well: MeOH were used as solvent control, while different positive controls (reference drugs ) were used for the according test organisms (see table S1). Starting from row A, 150 μL of the suspension were transferred […]
(§4) to the next row, the contents thoroughly mixed, and 150 μL transferred to the following row. The remaining 150 μL after row H were discarded.
(§5) 66.7 μg/mL in row A to 0.52 μg/mL in row H (1 mg/mL tested compounds) or 250 μg/mL in row A to 2 μg/mL in row H (10 mg/mL tested compounds).
(§6) The 96-well microtiter plates were then incubated overnight on a microplate shaker at 800 rpm at 30 or 37 °C (see table S1) and were visually evaluated the next day. The MIC is defined as the lowest concentration where no growth of the test organism was observed. A lower MIC thus corresponds to a higher antimicrobial activity […]
(§7) Table S1: MIC assay experiment parameters.
(§8) Tested organisms Strain No. Growth Incubation Positive control medium temp. [°C ] (reference)
(§9) KB-3-1 (ACC 158) cervix carcinoma as well as L929 (ACC 2) mouse fibroblasts were cultured under standard cell culture conditions (37 °C, 5% CO2, 95% humidified atmosphere). The cells were maintained in high glucose DMEM containing 10% fetal bovine serum and 100 U/mL penicillin and streptomycin (Gibco, Thermo Fisher Scientific, Waltham, USA). Cell lines were serially passaged after trypsinization, using 0.05% trypsin / 0.02% EDTA solution. The cultures were routinely monitored for potential contamination, and only mycoplasma free cultures were used. The test compounds were investigated for their anti-proliferative effect on cell lines, using the 3-(4,5-dimethylthiazol-2-yl)-2,5-diphenyltetrazolium bromide (MTT) based cell viability assay. […]

[1] = system: C. albicans CAI-4 HWP1-lacZ [ZK3379]; experiment: MIC assay, C. albicans CAI-4 HWP1-lacZ; type: cell-based, Candida albicans; details: tested 250–2 µg/mL
Protocol: as §1, §2, §3, §4, §5, §6, §7, §8, §9

C. albicans [DSM 1665] = system: C. albicans [DSM 1665]; set-up: method as in doi:10.1002/ejoc.202001661; details: highest tested concentration 250 µg/mL; cited from earlier work
C. auris [DSM 21092] = experiment: MIC assay, C. auris; type: cell-based, Candida auris; details: tested 250–2 µg/mL
Protocol: as §1, §2, §3, §4, §5, §6, §7, §8, §9

Row | Compound | inhibition of C. auris biofilm formation compared to solvent control (= 0%) (C. auris biofilm; 2 µg/mL) | inhibition of C. auris biofilm formation compared to solvent control (= 0%) (C. auris biofilm; 3.9 µg/mL) | inhibition of C. auris biofilm formation compared to solvent control (= 0%) (C. auris biofilm; 7.8 µg/mL) | inhibition of C. auris biofilm formation compared to solvent control (= 0%) (C. auris biofilm; 15.6 µg/mL) | inhibition of C. auris biofilm formation compared to solvent control (= 0%) (C. auris biofilm; 31.3 µg/mL) | inhibition of C. auris biofilm formation compared to solvent control (= 0%) (C. auris biofilm; 62.5 µg/mL) | inhibition of C. auris biofilm formation compared to solvent control (= 0%) (C. auris biofilm; 125 µg/mL) | inhibition of C. auris biofilm formation compared to solvent control (= 0%) (C. auris biofilm; 250 µg/mL) | MIC (C. albicans [DSM 11225]) | MIC [1] | MIC (C. albicans [DSM 1665]) | MIC (C. auris [DSM 21092]) | effect on formation of C. auris biofilms (C. auris biofilm)
1 | C[C@@H]1[C@H](O)[C@@H](C)/C=C/C=C/CC/C=C/C=C/C=C/C=C/C(O[C@H]2O[C@H](C)[C@@H](O)[C@H](N)[C@@H]2O)CC2O[C@](O)(CC(O)C(O)CCC(O)CC(O)CC(O)CC(=O)O[C@H]1C)CC(O)C2C(=O)O (stereo partly shown) [Nystatin, nystatin] | / ((/) no activity) | 60 ±10% | 42 ±15% | 47 ±2% | 50 ±10% | 53 ±8% | 45 ±10% | 56 ±2% | 8.3 µg/mL (≈ 8.96 µM) | 8.3 µg/mL (≈ 8.96 µM) | 8.3 µg/mL (≈ 8.96 µM) | 31.3 µg/mL (≈ 33.8 µM) | 
2 | CC(=O)OC/C=C/C1=CC2=C(CO1)C(=O)[C@@](C)(OC(=O)c1c(C)cc(O)cc1O)C(=O)/C2=C\C=C\C1=CC2=C(CO1)C(=O)[C@@](C)(OC(=O)c1c(C)cc(O)cc1O)[C@@H](O)C2 [Rut B, rutilin B] |  |  |  |  |  |  |  |  | no antimicrobial activity | no antimicrobial activity | no antimicrobial activity | no antimicrobial activity | did not affect the formation
3 | CC(=O)OC/C=C/C1=CC2=C(CO1)C(=O)[C@@](C)(OC(=O)c1c(C)cc(O)cc1O)C(=O)/C2=C\C=C\C1=CC2=C(CO1)C(=O)[C@@](C)(O)[C@@H](OC(=O)c1c(C)cc(O)cc1O)C2 [Rut A, rutilin A] |  |  |  |  |  |  |  |  | no antimicrobial activity | no antimicrobial activity | no antimicrobial activity | no antimicrobial activity | did not affect the formation

Source: PMC10381533, “Inhibitory Effects of the Fungal Pigment Rubiginosin C on Hyphal and Biofilm Formation in Candida albicans and Candida auris” (Journal of Fungi, 2023)
